Assay results taken from the kinase profiling compilation of Christmann-Franck et al. (2016).

Columns and labels:
Assay in all cases: KINOMEscan competition binding
Details in all cases: compound 10.0 µM
GAK (human) = GAK (human) (UniProt O14976)
TAOK3 (human) = TAOK3 (human) (UniProt Q9H2K8)
PIM1 (human) = PIM1 (human) (UniProt P11309)
MINK1 (human) = MINK1 (human) (UniProt Q8N4C8)
STK33 (human) = STK33 (human) (UniProt Q9BYT3)
DAPK3 (human) = DAPK3 (human) (UniProt O43293)
[1] = target: JAK3 JH1 catalytic (human) (UniProt P52333)
CLK1 (human) = CLK1 (human) (UniProt P49759)
[2] = test system: KIT (human), P10721 [V559D/V654A]
[3] = test system: EIF2AK4 KD2 (human), Q9P2K8 [S808G]
MAPK8 (human) = MAPK8 (human) (UniProt P45983)
MAPK8 (human), sequence (P45983 whole entry, looked up): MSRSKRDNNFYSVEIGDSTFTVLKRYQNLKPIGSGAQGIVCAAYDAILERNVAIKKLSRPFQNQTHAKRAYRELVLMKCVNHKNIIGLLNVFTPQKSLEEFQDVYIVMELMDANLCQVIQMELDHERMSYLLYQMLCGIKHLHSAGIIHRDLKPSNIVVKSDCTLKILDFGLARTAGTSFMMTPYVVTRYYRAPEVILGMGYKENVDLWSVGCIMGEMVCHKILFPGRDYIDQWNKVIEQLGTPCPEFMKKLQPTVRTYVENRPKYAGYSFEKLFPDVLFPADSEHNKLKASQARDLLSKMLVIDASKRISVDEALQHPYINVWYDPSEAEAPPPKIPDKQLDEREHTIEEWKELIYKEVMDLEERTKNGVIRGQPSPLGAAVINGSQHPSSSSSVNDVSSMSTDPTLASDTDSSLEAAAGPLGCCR

CAMKK2 (human) = CAMKK2 (human) (UniProt Q96RR4)
NEK2 (human) = NEK2 (human) (UniProt P51955)
CSNK2A2 (human) = CSNK2A2 (human) (UniProt P19784)
MAP3K5 (human) = MAP3K5 (human) (UniProt Q99683)
MAP2K4 (human) = MAP2K4 (human) (UniProt P45985)
BMPR1B (human) = BMPR1B (human) (UniProt O00238)
[4] = test system: KIT (human), P10721 [V559D/T670I]
[5] = test system: KIT (human), P10721 [V559D]
TGFBR2 (human) = TGFBR2 (human) (UniProt P37173)
RPS6KA1 KD2 (human) = RPS6KA1 KD2 (human) (UniProt Q15418)
MKNK1 (human) = MKNK1 (human) (UniProt Q9BUB5)
CSNK1D (human) = CSNK1D (human) (UniProt P48730)
CSNK1E (human) = CSNK1E (human) (UniProt P49674)
MAP4K4 (human) = MAP4K4 (human) (UniProt O95819)
PLK4 (human) = PLK4 (human) (UniProt O00444)
PRKD1 (human) = PRKD1 (human) (UniProt Q15139)
ACVR1 (human) = ACVR1 (human) (UniProt Q04771)
MKNK2 (human) = MKNK2 (human) (UniProt Q9HBH9)
PIK3CG (human) = PIK3CG (human) (UniProt P48736)
PIK3CG (human), sequence (P48736 whole entry, looked up): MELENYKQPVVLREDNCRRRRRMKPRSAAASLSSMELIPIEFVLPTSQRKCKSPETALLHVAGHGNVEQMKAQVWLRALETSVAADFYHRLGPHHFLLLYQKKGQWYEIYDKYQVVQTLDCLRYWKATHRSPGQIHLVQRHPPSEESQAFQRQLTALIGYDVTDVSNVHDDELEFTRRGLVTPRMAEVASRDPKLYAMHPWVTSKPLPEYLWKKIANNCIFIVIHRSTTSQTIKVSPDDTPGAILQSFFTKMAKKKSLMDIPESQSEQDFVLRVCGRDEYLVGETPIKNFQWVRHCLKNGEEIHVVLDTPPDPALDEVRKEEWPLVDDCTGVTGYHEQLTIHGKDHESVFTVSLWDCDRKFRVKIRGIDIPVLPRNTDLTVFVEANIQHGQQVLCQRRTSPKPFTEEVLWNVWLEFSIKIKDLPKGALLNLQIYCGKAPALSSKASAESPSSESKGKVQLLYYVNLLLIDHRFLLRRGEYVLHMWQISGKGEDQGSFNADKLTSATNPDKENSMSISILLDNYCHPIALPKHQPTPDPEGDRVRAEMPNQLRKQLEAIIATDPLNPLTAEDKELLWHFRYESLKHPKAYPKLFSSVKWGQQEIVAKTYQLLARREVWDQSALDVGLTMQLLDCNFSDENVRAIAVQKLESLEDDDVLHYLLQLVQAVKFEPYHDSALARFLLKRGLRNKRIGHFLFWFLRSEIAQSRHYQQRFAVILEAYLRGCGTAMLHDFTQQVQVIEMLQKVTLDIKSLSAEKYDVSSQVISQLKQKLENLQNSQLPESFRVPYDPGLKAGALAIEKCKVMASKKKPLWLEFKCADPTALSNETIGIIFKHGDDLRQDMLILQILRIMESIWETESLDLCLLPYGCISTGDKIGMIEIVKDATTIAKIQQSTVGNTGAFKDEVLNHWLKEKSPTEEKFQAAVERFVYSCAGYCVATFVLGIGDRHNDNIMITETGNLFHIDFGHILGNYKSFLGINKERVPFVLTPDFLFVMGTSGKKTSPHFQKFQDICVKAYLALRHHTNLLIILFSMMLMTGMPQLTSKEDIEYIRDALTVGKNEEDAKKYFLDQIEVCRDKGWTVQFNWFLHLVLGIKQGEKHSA

HIPK1 (human) = HIPK1 (human) (UniProt Q86Z02)
[6] = test system: FLT3 (human), P36888 [K663Q]
DAPK1 (human) = DAPK1 (human) (UniProt P53355)
TNIK (human) = TNIK (human) (UniProt Q9UKE5)
TNIK (human), sequence (Q9UKE5 whole entry, looked up): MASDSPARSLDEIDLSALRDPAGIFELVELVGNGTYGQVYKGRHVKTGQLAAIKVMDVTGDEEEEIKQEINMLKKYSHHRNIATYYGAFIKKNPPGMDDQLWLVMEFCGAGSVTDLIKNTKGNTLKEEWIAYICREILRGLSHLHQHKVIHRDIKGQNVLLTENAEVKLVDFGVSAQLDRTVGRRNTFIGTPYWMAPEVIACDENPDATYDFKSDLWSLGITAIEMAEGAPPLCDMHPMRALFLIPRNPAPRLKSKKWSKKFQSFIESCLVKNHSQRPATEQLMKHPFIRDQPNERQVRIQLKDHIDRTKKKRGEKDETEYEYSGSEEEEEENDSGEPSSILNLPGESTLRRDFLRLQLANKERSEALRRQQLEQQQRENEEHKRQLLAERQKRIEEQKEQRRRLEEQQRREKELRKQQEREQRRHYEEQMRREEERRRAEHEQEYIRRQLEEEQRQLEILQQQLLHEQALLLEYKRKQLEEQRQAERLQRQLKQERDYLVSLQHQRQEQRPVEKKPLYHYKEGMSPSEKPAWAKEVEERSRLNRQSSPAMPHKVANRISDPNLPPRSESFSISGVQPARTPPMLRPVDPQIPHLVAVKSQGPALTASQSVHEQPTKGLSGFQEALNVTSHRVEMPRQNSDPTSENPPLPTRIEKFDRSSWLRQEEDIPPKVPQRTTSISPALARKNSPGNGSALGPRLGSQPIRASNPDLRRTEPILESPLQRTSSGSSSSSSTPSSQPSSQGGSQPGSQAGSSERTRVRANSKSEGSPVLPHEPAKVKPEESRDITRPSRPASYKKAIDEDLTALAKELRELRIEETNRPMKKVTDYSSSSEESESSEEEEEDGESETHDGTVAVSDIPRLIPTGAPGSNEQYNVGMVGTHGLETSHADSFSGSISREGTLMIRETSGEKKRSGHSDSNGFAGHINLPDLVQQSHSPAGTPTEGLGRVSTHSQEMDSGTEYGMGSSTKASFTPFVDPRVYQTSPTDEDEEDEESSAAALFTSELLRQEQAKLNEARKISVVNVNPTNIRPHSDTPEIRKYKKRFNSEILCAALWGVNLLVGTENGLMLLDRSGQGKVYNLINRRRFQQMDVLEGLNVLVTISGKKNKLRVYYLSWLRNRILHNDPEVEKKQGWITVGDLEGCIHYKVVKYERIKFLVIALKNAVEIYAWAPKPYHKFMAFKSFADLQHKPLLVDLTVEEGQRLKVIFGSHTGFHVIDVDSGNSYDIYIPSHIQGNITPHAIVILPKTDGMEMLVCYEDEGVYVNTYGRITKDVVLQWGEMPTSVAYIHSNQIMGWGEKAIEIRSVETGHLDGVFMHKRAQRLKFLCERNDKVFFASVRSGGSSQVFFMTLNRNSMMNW

PIP4K2B (human) = PIP4K2B (human) (UniProt P78356)
PIP5K1A (human) = PIP5K1A (human) (UniProt Q99755)
RPS6KA4 KD2 (human) = RPS6KA4 KD2 (human) (UniProt O75676)
RPS6KA4 KD2 (human), sequence (O75676 whole entry, looked up): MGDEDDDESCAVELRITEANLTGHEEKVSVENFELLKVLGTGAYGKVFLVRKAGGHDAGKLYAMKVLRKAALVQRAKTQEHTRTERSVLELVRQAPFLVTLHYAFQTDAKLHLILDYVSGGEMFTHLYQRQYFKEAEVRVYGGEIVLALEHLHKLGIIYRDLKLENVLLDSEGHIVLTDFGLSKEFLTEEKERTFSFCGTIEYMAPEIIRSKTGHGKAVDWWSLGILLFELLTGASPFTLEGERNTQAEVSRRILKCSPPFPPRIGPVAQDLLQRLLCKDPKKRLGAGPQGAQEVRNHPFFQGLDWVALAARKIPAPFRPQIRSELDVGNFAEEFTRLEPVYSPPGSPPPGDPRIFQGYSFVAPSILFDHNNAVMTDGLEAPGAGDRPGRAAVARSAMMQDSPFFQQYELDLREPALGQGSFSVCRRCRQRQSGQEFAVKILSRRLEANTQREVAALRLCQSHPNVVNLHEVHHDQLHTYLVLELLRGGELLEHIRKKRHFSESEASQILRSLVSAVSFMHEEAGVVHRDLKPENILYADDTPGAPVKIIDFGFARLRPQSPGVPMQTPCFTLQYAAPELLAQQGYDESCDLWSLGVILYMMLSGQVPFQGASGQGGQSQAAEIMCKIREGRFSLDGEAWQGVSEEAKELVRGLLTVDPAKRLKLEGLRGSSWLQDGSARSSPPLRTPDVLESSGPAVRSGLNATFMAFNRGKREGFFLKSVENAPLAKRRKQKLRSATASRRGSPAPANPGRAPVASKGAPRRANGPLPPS

SRPK3 (human) = SRPK3 (human) (UniProt Q9UPE1)
SRPK2 (human) = SRPK2 (human) (UniProt P78362)
RPS6KA5 KD2 (human) = RPS6KA5 KD2 (human) (UniProt O75582)
ACVR2A (human) = ACVR2A (human) (UniProt P27037)
RPS6KA2 KD2 (human) = RPS6KA2 KD2 (human) (UniProt Q15349)

GAK (human), sequence (O14976 whole entry, looked up): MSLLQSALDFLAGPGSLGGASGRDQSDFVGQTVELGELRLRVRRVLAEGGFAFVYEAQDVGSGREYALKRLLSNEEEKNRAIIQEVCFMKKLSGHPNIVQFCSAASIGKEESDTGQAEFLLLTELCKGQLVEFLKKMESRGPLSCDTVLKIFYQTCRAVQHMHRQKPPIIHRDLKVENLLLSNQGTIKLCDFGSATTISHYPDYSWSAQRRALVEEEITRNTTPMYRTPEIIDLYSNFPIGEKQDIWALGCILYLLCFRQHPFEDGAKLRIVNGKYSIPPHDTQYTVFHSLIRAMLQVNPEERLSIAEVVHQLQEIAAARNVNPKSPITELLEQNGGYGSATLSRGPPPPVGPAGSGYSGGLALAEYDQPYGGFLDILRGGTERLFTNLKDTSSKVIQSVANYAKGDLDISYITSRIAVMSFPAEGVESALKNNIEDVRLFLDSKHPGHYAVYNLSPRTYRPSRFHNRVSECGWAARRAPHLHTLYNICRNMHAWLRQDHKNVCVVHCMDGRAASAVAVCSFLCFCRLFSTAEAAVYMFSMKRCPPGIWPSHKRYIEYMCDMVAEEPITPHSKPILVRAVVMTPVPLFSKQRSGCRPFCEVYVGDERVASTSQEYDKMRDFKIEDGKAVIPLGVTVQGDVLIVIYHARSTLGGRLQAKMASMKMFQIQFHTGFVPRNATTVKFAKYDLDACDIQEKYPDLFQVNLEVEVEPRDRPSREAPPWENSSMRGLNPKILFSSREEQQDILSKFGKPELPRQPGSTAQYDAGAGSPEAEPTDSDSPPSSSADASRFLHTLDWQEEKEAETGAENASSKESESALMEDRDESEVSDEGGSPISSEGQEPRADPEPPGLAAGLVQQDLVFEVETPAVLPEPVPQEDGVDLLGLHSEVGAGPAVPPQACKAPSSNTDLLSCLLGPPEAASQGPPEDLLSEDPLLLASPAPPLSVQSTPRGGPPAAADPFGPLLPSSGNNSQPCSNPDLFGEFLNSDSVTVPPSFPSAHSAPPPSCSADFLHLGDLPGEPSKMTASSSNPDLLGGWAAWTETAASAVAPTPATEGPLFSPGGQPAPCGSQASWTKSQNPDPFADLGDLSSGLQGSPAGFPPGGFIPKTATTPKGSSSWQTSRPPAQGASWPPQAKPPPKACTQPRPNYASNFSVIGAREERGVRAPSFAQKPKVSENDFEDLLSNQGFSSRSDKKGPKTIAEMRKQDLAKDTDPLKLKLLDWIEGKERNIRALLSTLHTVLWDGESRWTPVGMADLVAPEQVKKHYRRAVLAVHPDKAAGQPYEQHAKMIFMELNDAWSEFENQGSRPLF

COc1cc(N2CCN(C)CC2)ccc1Nc1ncc2c(n1)N(C)c1sccc1C(=O)N2C
kinase still bound, per cent of control (GAK (human)): 24%
kinase still bound, per cent of control (TAOK3 (human)): 13%
kinase still bound, per cent of control (PIM1 (human)): 66%
kinase still bound, per cent of control (MINK1 (human)): 46%
kinase still bound, per cent of control (STK33 (human)): 1.2%
kinase still bound, per cent of control (DAPK3 (human)): 42%
kinase still bound, per cent of control [1]: 100%
kinase still bound, per cent of control (CLK1 (human)): 56%
kinase still bound, per cent of control [2]: 91%
kinase still bound, per cent of control [3]: 82%
kinase still bound, per cent of control (MAPK8 (human)): 86%
kinase still bound, per cent of control (CAMKK2 (human)): 34%
kinase still bound, per cent of control (NEK2 (human)): 83%
kinase still bound, per cent of control (CSNK2A2 (human)): 52%
kinase still bound, per cent of control (MAP3K5 (human)): 74%
kinase still bound, per cent of control (MAP2K4 (human)): 71%
kinase still bound, per cent of control (BMPR1B (human)): 91%
kinase still bound, per cent of control [4]: 82%
kinase still bound, per cent of control [5]: 71%
kinase still bound, per cent of control (TGFBR2 (human)): 94%
kinase still bound, per cent of control (RPS6KA1 KD2 (human)): 24%
kinase still bound, per cent of control (MKNK1 (human)): 77%
kinase still bound, per cent of control (CSNK1D (human)): 81%
kinase still bound, per cent of control (CSNK1E (human)): 91%
kinase still bound, per cent of control (MAP4K4 (human)): 99%
kinase still bound, per cent of control (PLK4 (human)): 9.9%
kinase still bound, per cent of control (PRKD1 (human)): 12%
kinase still bound, per cent of control (ACVR1 (human)): 94%
kinase still bound, per cent of control (MKNK2 (human)): 24%
kinase still bound, per cent of control (PIK3CG (human)): 73%
kinase still bound, per cent of control (HIPK1 (human)): 67%
kinase still bound, per cent of control [6]: 93%
kinase still bound, per cent of control (DAPK1 (human)): 58%
kinase still bound, per cent of control (TNIK (human)): 55%
kinase still bound, per cent of control (PIP4K2B (human)): 89%
kinase still bound, per cent of control (PIP5K1A (human)): 65%
kinase still bound, per cent of control (RPS6KA4 KD2 (human)): 13%
kinase still bound, per cent of control (SRPK3 (human)): 67%
kinase still bound, per cent of control (SRPK2 (human)): 100%
kinase still bound, per cent of control (RPS6KA5 KD2 (human)): 57%
kinase still bound, per cent of control (ACVR2A (human)): 100%
kinase still bound, per cent of control (RPS6KA2 KD2 (human)): 15%

COc1cc(N2CCN(C)CC2)ccc1Nc1ncc2c(n1)N(C)c1ccccc1N(C)C2=O
kinase still bound, per cent of control (GAK (human)): 45%
kinase still bound, per cent of control (TAOK3 (human)): 67%
kinase still bound, per cent of control (PIM1 (human)): 91%
kinase still bound, per cent of control (MINK1 (human)): 100%
kinase still bound, per cent of control (STK33 (human)): 58%
kinase still bound, per cent of control (DAPK3 (human)): 98%
kinase still bound, per cent of control [1]: 100%
kinase still bound, per cent of control (CLK1 (human)): 66%
kinase still bound, per cent of control [2]: 100%
kinase still bound, per cent of control [3]: 100%
kinase still bound, per cent of control (MAPK8 (human)): 86%
kinase still bound, per cent of control (CAMKK2 (human)): 53%
kinase still bound, per cent of control (NEK2 (human)): 96%
kinase still bound, per cent of control (CSNK2A2 (human)): 88%
kinase still bound, per cent of control (MAP3K5 (human)): 100%
kinase still bound, per cent of control (MAP2K4 (human)): 98%
kinase still bound, per cent of control (BMPR1B (human)): 100%
kinase still bound, per cent of control [4]: 84%
kinase still bound, per cent of control [5]: 95%
kinase still bound, per cent of control (TGFBR2 (human)): 98%
kinase still bound, per cent of control (RPS6KA1 KD2 (human)): 56%
kinase still bound, per cent of control (MKNK1 (human)): 100%
kinase still bound, per cent of control (CSNK1D (human)): 76%
kinase still bound, per cent of control (CSNK1E (human)): 56%
kinase still bound, per cent of control (MAP4K4 (human)): 85%
kinase still bound, per cent of control (PLK4 (human)): 67%
kinase still bound, per cent of control (PRKD1 (human)): 87%
kinase still bound, per cent of control (ACVR1 (human)): 100%
kinase still bound, per cent of control (MKNK2 (human)): 0.55%
kinase still bound, per cent of control (PIK3CG (human)): 100%
kinase still bound, per cent of control (HIPK1 (human)): 68%
kinase still bound, per cent of control [6]: 92%
kinase still bound, per cent of control (DAPK1 (human)): 82%
kinase still bound, per cent of control (TNIK (human)): 90%
kinase still bound, per cent of control (PIP4K2B (human)): 91%
kinase still bound, per cent of control (PIP5K1A (human)): 95%
kinase still bound, per cent of control (RPS6KA4 KD2 (human)): 88%
kinase still bound, per cent of control (SRPK3 (human)): 68%
kinase still bound, per cent of control (SRPK2 (human)): 100%
kinase still bound, per cent of control (RPS6KA5 KD2 (human)): 93%
kinase still bound, per cent of control (ACVR2A (human)): 92%
kinase still bound, per cent of control (RPS6KA2 KD2 (human)): 97%

COc1cc(N2CCC(O)CC2)ccc1Nc1ncc2c(n1)N1CCc3cccc(c31)C(=O)N2C
kinase still bound, per cent of control (GAK (human)): 12%
kinase still bound, per cent of control (TAOK3 (human)): 70%
kinase still bound, per cent of control (PIM1 (human)): 91%
kinase still bound, per cent of control (MINK1 (human)): 60%
kinase still bound, per cent of control (STK33 (human)): 3.3%
kinase still bound, per cent of control (DAPK3 (human)): 37%
kinase still bound, per cent of control [1]: 86%
kinase still bound, per cent of control (CLK1 (human)): 73%
kinase still bound, per cent of control [2]: 100%
kinase still bound, per cent of control [3]: 100%
kinase still bound, per cent of control (MAPK8 (human)): 68%
kinase still bound, per cent of control (CAMKK2 (human)): 60%
kinase still bound, per cent of control (NEK2 (human)): 62%
kinase still bound, per cent of control (CSNK2A2 (human)): 67%
kinase still bound, per cent of control (MAP3K5 (human)): 100%
kinase still bound, per cent of control (MAP2K4 (human)): 82%
kinase still bound, per cent of control (BMPR1B (human)): 88%
kinase still bound, per cent of control [4]: 79%
kinase still bound, per cent of control [5]: 93%
kinase still bound, per cent of control (TGFBR2 (human)): 100%
kinase still bound, per cent of control (RPS6KA1 KD2 (human)): 8%
kinase still bound, per cent of control (MKNK1 (human)): 48%
kinase still bound, per cent of control (CSNK1D (human)): 60%
kinase still bound, per cent of control (CSNK1E (human)): 92%
kinase still bound, per cent of control (MAP4K4 (human)): 57%
kinase still bound, per cent of control (PLK4 (human)): 5.4%
kinase still bound, per cent of control (PRKD1 (human)): 12%
kinase still bound, per cent of control (ACVR1 (human)): 95%
kinase still bound, per cent of control (MKNK2 (human)): 32%
kinase still bound, per cent of control (PIK3CG (human)): 28%
kinase still bound, per cent of control (HIPK1 (human)): 73%
kinase still bound, per cent of control [6]: 96%
kinase still bound, per cent of control (DAPK1 (human)): 44%
kinase still bound, per cent of control (TNIK (human)): 48%
kinase still bound, per cent of control (PIP4K2B (human)): 100%
kinase still bound, per cent of control (PIP5K1A (human)): 91%
kinase still bound, per cent of control (RPS6KA4 KD2 (human)): 17%
kinase still bound, per cent of control (SRPK3 (human)): 89%
kinase still bound, per cent of control (SRPK2 (human)): 100%
kinase still bound, per cent of control (RPS6KA5 KD2 (human)): 62%
kinase still bound, per cent of control (ACVR2A (human)): 100%
kinase still bound, per cent of control (RPS6KA2 KD2 (human)): 23%
